Patent publication US7371780B2, “Use of calphostin C to treat drug-resistant tumor cells” (priority 2003, dated 2008)

Assays:
MCF-7TAX cells [1] = test: Drug uptake, MCF-7TAX; format: cell-based, human; conditions: 2 μM doxorubicin or [3H]-paclitaxel
Description: (§1) FIG. 5 illustrates the effect of calphostin C (Cal-C) on drug uptake in MCF-7 (square symbols), MCF-7TAX (diamond symbols) and MCF-7DOX (triangular symbols) cells. After one-day growth, the cells were left untreated (closed symbols) or treated with 100 nM calphostin C for 2 h with light activation (open symbols). Cells were then washed and the medium replaced with medium containing 2 μM of doxorubicin (A) or [^3H]-paclitaxel (B). The cells were then trypsinized and drug accumulation measured by flow cytometry (A) or liquid scintillation counting (B) at indicated time points. The figures are representative of three independent experiments.

MCF-7 cells [2] = test: Clonogenic assay, MCF-7 cells; format: cell-based, human; conditions: Homo sapiens, MCF7, 24 h drug, calphostin C light-activated 2 h, read-out: IC50 (concentration required to kill or inhibit the growth of 50% of cells)
Description: (§2) The breast cancer cell line MCF-7 (lot HTB-22) was obtained from the American […] (ATCC) and maintained in Dulbecco's H21 medium (MEM) supplemented with 10% Fetal Bovine Serum (FBS) (HyClone, Logan, Utah) in a humidified atmosphere containing 5% CO2 at 37° C. To establish drug resistant cell lines, MCF-7 cells were grown in the presence of either paclitaxel or doxorubicin, beginning at a concentration 1000-fold below that required to kill 50% of the cells (the IC50). The drug concentration was increased 3-fold every two weeks (two passages), with an aliquot of the cells removed for storage in liquid nitrogen before each increase in concentration. Dose escalation continued until all cells died, after which the cells able to tolerate the highest concentration of drug were thawed for subsequent study. In this way, paclitaxel-resistant (MCF-7TAX) and doxorubicin-resistant (MCF-7DOX) cell lines were established. The IC50 for each drug was determined using a clonogenic assay as outlined below. The drug resistant cells were kept in culture in the presence of the maximally tolerated drug dose. Before each experiment, the cell lines were grown for two days in the absence of drug after which fresh medium containing either calphostin C (Sigma Laboratories, Oakville, ON), doxorubicin (Adriamycin PFS®, USP, Mississauga, ON) or paclitaxel (Taxol, Bristol-Myers Squibb, Montreal, QC) was added at the concentrations indicated.
(§3) The sensitivity of MCF-7, MCF-7TAX and MCF-7DOX cells to calphostin C, paclitaxel or doxorubicin was determined using a clonogenic assay. Briefly, 2.5×10^5 cells were seeded into 25 cm^2 tissue culture flasks in Dulbecco's H21 medium supplemented with 10% FBS. The cells were allowed to grow overnight, after which the medium was removed and replaced with medium containing varying concentrations of paclitaxel, doxorubicin, or calphostin C (after 2 hours of light exposure to activate the molecule). […] The colonies present in 5 randomly selected fields were then counted by visual inspection. […]

MCF-7DOX cells [3] = test: Drug uptake, MCF-7DOX; format: cell-based, human; conditions: 2 μM doxorubicin or [3H]-paclitaxel
Description: as §1

MCF-7 cells [4] = test: Flow cytometric sub-G1 DNA content, MCF-7; format: cell-based, human; conditions: 10 nM paclitaxel or 2 μM doxorubicin
Description: For flow cytometric analysis, cells at about 50% to 60% confluence were released from their flasks by trypsin treatment and washed with PBS. After centrifugation at 1000 rpm for 5 min, cells were then fixed by resuspension in 75% ethanol for 2 hours, collected by centrifugation, and resuspended in PI staining solution (see above) for 1 h. For each sample, approximately 2×10^4 cells were analyzed using a Beckman Coulter Epics® Elite flow cytometer. Fluorescence intensity upon stimulation with an argon-ion laser at 488 nm was measured using the PMT4 channel (625DL filter) and plotted against cell number. The percentage of cells with a sub-G1 DNA content was determined by the flow cytometer, adjusting the gates such that only cells with a fluorescence lower than the peak for untreated cells in G1 are counted (see FIG. 4).

[5] = test system: MCF-7DOX (doxorubicin-resistant) cells; test: Clonogenic assay, MCF-7DOX cells; format: cell-based, human; conditions: for fold resistance / lower sensitivity compared to MCF-7 cells: MCF-7DOX vs MCF-7
Description: as §2
The sensitivity of MCF-7, MCF-7TAX and MCF-7DOX cells to calphostin C, paclitaxel or doxorubicin was determined using a clonogenic assay. Briefly, 2.5×10^5 cells were seeded into 25 cm^2 tissue culture flasks in Dulbecco's H21 medium supplemented with 10% FBS. The cells were allowed to grow overnight, after which the medium was removed and replaced with medium containing varying concentrations of paclitaxel, doxorubicin, or calphostin C (after 2 hours of light exposure to activate the molecule). After 24 hours, the medium (including any floating cells) was transferred to 14 ml screw-capped tubes and centrifuged at 1000 rpm for 10 min. The adherent cells were then released from their flasks by trypsin treatment and suspended in 10 ml of H21 medium. The cell suspension was transferred to the previous tube and all cells harvested by centrifugation. The cell pellet was washed one more time with drug-free medium and resuspended in 300 μl of normal growth medium containing FBS. The cells were then added to 2.7 ml of a methylcellulose solution. The methylcellulose medium was prepared by combining 70 ml of a 2.6% (w/v) methylcellulose solution [Shin-Etsu Chemical Co., Tokyo, Japan] in Iscove's medium (Princess Margaret Hospital, Toronto, ON) with 30 ml of FBS. Three ml syringes equipped with a 16-gauge needle were used for transferring the viscous medium. The mixture was vigorously vortexed for 10 s to ensure an even distribution of cells within the viscous medium. The vortexed samples were then allowed to sit for 30 min to remove air bubbles. A 1.2 ml aliquot of the cell suspension was then transferred to a 6-well plate and the cells allowed to grow until colonies of >50 cells were visible by light microscopy for the various cell lines in the absence of drug. The colonies present in 5 randomly selected fields were then counted by visual inspection.
Calphostin C (Sigma Laboratories, Oakville, ON) was prepared as a 100 μM stock solution in dimethylsulfoxide (Sigma Laboratories, Oakville, ON) and stored at −70° C. in 100 μl aliquots. […]

MCF-7DOX cells [6] = test: Microscopic cell morphology, MCF-7DOX; format: cell-based, human; conditions: 2 μM doxorubicin, 24 h
Description: (§4) For microscopic observation, cells were seeded onto standard glass coverslips in 10 cm tissue culture plates with 10 ml of H21 medium and grown for 2 days until 40-50% confluence was obtained. After treatment with paclitaxel, doxorubicin or calphostin C, the cells on the glass coverslips were washed twice with PBS (2.7 mM KCl, 1.0 mM KH2PO4, 137 mM NaCl, 10 mM Na2HPO4, pH 7.4) and stained with acridine orange/ethidium bromide (each at 4 μg/ml in PBS) for 10 min at 37° C.. The coverslips were then washed three times in PBS and mounted onto standard glass slides for morphological evaluation. For propidium iodide (PI) staining, the cells on coverslips were washed twice with PBS and fixed in methanol (cooled to −20° C.) for 20 min. Thirty μl of propidium iodide (PI) staining solution (100 μg/ml PI, 0.1% sodium citrate, 100 μg/ml RNase A and 0.3% Nonidet P-40) were then applied to the coverslips for 5 min. […] The cells were then examined using a Zeiss Axiovert 100 inverted fluorescence microscope. […] For each sample, the number of dead cells was determined by visualization after ethidium bromide staining, whereby only dead cells which have lost membrane integrity allow entry of cell-impermeable ethidium bromide into cells to complex with DNA and induce bright red fluorescence. […] The images were recorded and overlayed using Northern Eclipse software (Empix Imaging Inc., Mississauga, ON).

[7] = test system: caspase-8 and PARP in Jurkat cells; test: Immunoblotting of apoptosis markers, Jurkat (positive control); format: cell-based; conditions: 3 μg/ml etoposide, 24 hours
Description: FIG. 9 illustrates the effect of calphostin C on caspase 8 cleavage, PARP cleavage, and cytochrome C release in MCF-7, MCF-7FDOX, and MCF-7TAX cells. The MCF-7, MCF-7FDOX, and MCF-7TAX cell lines were incubated with (+) or without (−) 100 nM calphostin C, after which whole cell extracts were monitored for caspase-8 and cytochrome C levels by immunoblotting as described in Materials and Methods. A similar experiment was also performed, except that mitochondrial (M) and cytosolic (C) fractions were prepared as described in Materials and Methods to monitor by immunoblotting the release of cytochrome C from mitochondria into the cytosol in response to calphostin C. As positive controls, similar experiments were conducted using Jurkat cells, with (+) or without (−) the addition of 3 μg/ml etoposide for 24 hours.
Extraction of proteins from whole cells was performed using RIPA buffer (1% NP40, 0.5% sodium deoxycholate, 0.1% SDS, 1 Complete™ protease inhibitor tablet in 50 ml of PBS). Prior to use, the RIPA buffer (50 ml) was supplemented with 500 μl each of both 100 mM sodium orthovanadate and 10 mg/ml phenylmethylsulfonyl fluoride. Cultured cells were grown as a monolayer and allowed to reach 70-90% confluence in 10 cm tissue culture plates. […]

MCF-7 cells [8] = test: Microscopic cell morphology (bright field, AO/EB, PI), MCF-7; format: cell-based, human; conditions: 10 nM paclitaxel, 24 hours, PI staining
Description: as §4

MCF-7TAX cells [9] = test: Microscopic cell morphology, MCF-7TAX; format: cell-based, human; conditions: 10 nM paclitaxel, 24 h
Description: as §4

[10] = test system: MCF-7TAX (paclitaxel-resistant) cells; test: Clonogenic assay, MCF-7TAX cells; format: cell-based, human
Description: as §2, §3

Row | SMILES | drug uptake compared to MCF-7 cells (MCF-7TAX cells [1]) | IC50 (MCF-7 cells [2]) | drug uptake compared to MCF-7 cells (MCF-7DOX cells [3]) | time of large increase in number of cells with sub-G1 DNA content after drug administration (MCF-7 cells [4]) | IC50 ([5]; Homo sapiens, MCF7-DOX, MCF-7DOX cells, 24 h drug, calphostin C light-activated 2 h) | fold resistance / lower sensitivity compared to MCF-7 cells [5] | change in morphology over untreated cells (MCF-7DOX cells [6]) | caspase-8 and PARP cleavage [7] | percentage of adherent cells multinucleated (MCF-7 cells [8]) | change in morphology over untreated cells (MCF-7TAX cells [9]) | IC50 ([10]; Homo sapiens, MCF-7TAX cells, 24 h drug, calphostin C light-activated 2 h) | fold higher IC50 than for MCF-7 cells ([10]; MCF-7TAX vs MCF-7)
1 | COc1cccc2c1C(=O)c1c(O)c3c(c(O)c1C2=O)C[C@@](O)(C(=O)CO)C[C@@H]3O[C@H]1C[C@H](N)[C@H](O)[C@H](C)O1 [doxorubicin] | dramatically lower | 0.01 µM | dramatically lower | approximately 24 hours | 0.6 µM | 60 fold | no change in morphology | – | – | – | – | –
2 | COc1cc([C@@H]2c3cc4c(cc3[C@@H](O[C@@H]3O[C@@H]5CO[C@@H](C)O[C@H]5[C@H](O)[C@H]3O)[C@H]3COC(=O)[C@H]23)OCO4)cc(OC)c1O [etoposide] | – | – | – | – | – | – | – | could induce caspase-8 and PARP cleavage | – | – | – | –
3 | CC(=O)O[C@H]1C(=O)[C@@]2(C)[C@H]([C@H](OC(=O)c3ccccc3)[C@]3(O)C[C@H](OC(=O)[C@H](O)[C@@H](NC(=O)c4ccccc4)c4ccccc4)C(C)=C1C3(C)C)[C@]1(OC(C)=O)CO[C@@H]1C[C@@H]2O [paclitaxel] | dramatically lower | 0.0005 µM | dramatically lower | approximately 24 hours | – | approximately 4000 fold | – | – | over 60% | no change in morphology | 0.027 µM | 54 fold
